This note sets out measurements from ChEMBL document CHEMBL1921674, “Novel tricyclic inhibitors of IKK2: discovery and SAR leading to the identification of 2-methoxy-N-((6-(1-methyl-4-(methylamino)-1,6-dihydroimidazo[4,5-d]pyrrolo[2,3-b]pyridin-7-yl)pyridin-2-yl)methyl)acetamide (BMS-066)” (Bioorg Med Chem Lett, 2011).

Calls of active or inactive are those of the source. The calls are words filed in the database; no cut-off is given here.

Broadly, the IC50 is the concentration that gives 50% inhibition. The clearance is the rate of elimination divided by the concentration. Low readings indicate a low capacity for elimination, high ones a high capacity for elimination. Usually AUC stands for concentration integrated over time. Low readings indicate less exposure, high ones more exposure. For orientation: pKa means the pH at which an ionisable group is half protonated. Low values mean a group that gives up its proton readily, high ones a group that holds its proton tightly. As a reminder, the inhibition is the share of the control response that was lost under treatment. Higher therefore signals strong suppression. Usually bioavailability stands for dose-corrected exposure relative to a reference, in per cent. As usually defined, the logP is the decadic logarithm of the partition coefficient of the neutral form, usually between octanol and water. High values mean higher lipophilicity, low ones lower lipophilicity. In general, half-life refers to how long it takes for the measured level to halve. In general, Cmax refers to the maximum level reached in the sampled fluid or tissue.

The target in data set [1] is T1, Proto-oncogene tyrosine-protein kinase receptor Ret (Homo sapiens, UniProt P07949). Put plainly: Inhibition of RET.
The nature of data set [2]: Clearance in Lewis rat at 2 mg/kg, iv. In kind it is ADME, organism-based. On the set-up: dose 2 mg/kg, route intravenous. Conditions: in vivo.
A short description of data set [3]: AUC in Lewis rat at 10 mg/kg, po. In kind it is ADME, organism-based. On the set-up: dose 10 mg/kg, route oral. Conditions: plasma.
Data set [4] can be described thus: Dissociation constant, pKa of the compound. In kind it is physicochemical.
Data set [5] can be described thus: AUC in Sprague-Dawley rat intestine at 2 mg/kg, iv after 8 hrs. On the set-up: time < 8 hr, dose 2 mg/kg, route intravenous. In kind it is ADME, organism-based.
In data set [6] the target is T2, Inhibitor of nuclear factor kappa-B kinase subunit beta (Homo sapiens, UniProt O14920).
T2 sequence (O14920 whole entry): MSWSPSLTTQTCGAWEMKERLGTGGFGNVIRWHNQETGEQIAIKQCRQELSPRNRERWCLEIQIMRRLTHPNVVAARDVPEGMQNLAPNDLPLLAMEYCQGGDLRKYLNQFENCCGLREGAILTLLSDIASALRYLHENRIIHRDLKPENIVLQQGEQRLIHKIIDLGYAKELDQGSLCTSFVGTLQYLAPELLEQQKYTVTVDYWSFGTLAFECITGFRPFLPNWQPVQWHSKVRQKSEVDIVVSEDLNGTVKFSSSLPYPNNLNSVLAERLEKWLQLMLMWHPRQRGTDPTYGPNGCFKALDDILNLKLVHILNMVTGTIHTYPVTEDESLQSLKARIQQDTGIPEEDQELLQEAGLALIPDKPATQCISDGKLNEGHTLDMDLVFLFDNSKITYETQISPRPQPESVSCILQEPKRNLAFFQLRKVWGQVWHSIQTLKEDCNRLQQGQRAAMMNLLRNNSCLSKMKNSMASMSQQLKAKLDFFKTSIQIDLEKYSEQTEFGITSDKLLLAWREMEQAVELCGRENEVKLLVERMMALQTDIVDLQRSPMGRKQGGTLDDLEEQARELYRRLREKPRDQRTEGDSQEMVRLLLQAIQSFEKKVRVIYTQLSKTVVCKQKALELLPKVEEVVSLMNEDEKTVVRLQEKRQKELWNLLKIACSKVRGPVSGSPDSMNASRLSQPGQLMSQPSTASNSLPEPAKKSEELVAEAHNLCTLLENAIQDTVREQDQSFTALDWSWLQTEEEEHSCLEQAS
Put plainly: Inhibition of human IKK2-mediated GST-IkappaBalpha protein fusion phosphorylation.

Data set [7] is described as follows: Clearance in dog at 1 mg/kg, iv. In kind it is ADME, organism-based, Canis lupus familiaris. On the set-up: dose 1 mg/kg, route intravenous. Conditions: in vivo.
Data set [8] addresses Protein-tyrosine kinase 6 (Homo sapiens, UniProt Q13882). Put plainly: Inhibition of BRK.
A further data set deals with Mus musculus. Put plainly: Reduction in TNBS-induced colitis in mouse […] model assessed as decrease of colon length at 10 mg/kg, administered intrarectally 1 day before TNBS challenge twice daily for 4 days. On the set-up: dose 10 mg/kg. In kind it is functional, organism-based.
Data set [9] concerns the target T1, Proto-oncogene tyrosine-protein kinase receptor Ret. Put plainly: Inhibition of RET at 10 uM.
Data set [10] deals with T3, Vascular endothelial growth factor receptor 3 (Homo sapiens, UniProt P35916). Put plainly: Inhibition of FLT4 at 10 uM.
The next data set concerns Salmonella typhimurium. Put plainly: Induction of mutagenicity in Salmonella Typhimurium by Ames test. As to conditions: salmonella enterica subsp. enterica serovar typhimurium. In kind it is toxicity, organism-based.
Data set [11] in a line: Oral bioavailability in Lewis rat at 10 mg/kg. In kind it is ADME, organism-based. Conditions: in vivo.
Data set [12] in a line: Lipophilicity, log P of the compound by HPLC analysis. In kind it is physicochemical.
Data set [13] in a line: Half life in Lewis rat at 2 mg/kg, iv. In kind it is ADME, organism-based. On the set-up: dose 2 mg/kg, route intravenous. As to conditions: in vivo.
A short description of data set [14]: Half life in mouse at 2 mg/kg, iv. In kind it is ADME, organism-based. On the set-up: dose 2 mg/kg, route intravenous. Conditions: in vivo.
For data set [15], the system named is Blood. Put plainly: Antiinflammatory activity in human whole blood assessed as inhibition of LPS-induced TNFalpha release treated for 45 mins before LPS challenge measured after 6 hrs by ELISA. In kind it is functional, tissue-based. As to conditions: Homo sapiens, Blood.
The target in data set [16] is Inhibitor of nuclear factor kappa-B kinase subunit alpha (Homo sapiens, UniProt O15111). Put plainly: Inhibition of IKK1.
Data set [17] in a line: Cmax in mouse at 3 mg/kg, po. In kind it is ADME, organism-based. On the set-up: dose 3 mg/kg, route oral. Conditions: in vivo.
Data set [18] concerns Blood. Put plainly: Antiinflammatory activity in rat whole blood assessed as inhibition of LPS-induced TNFalpha release treated for 45 mins before LPS challenge measured after 6 hrs by ELISA. In kind it is functional, tissue-based.
Data set [19] is described as follows: Protein binding in mouse serum. As to conditions: read-out: PB (converted). In kind it is ADME, cell-free.
For data set [20], the target named is T3, Vascular endothelial growth factor receptor 3. Put plainly: Inhibition of FLT4.
Data set [21] is described as follows: Volume of distribution at steady state in mouse at 2 mg/kg, iv. In kind it is ADME, organism-based. On the set-up: dose 2 mg/kg, route intravenous. As to conditions: in vivo, read-out: Vdss.

T1 sequence (P07949 whole entry): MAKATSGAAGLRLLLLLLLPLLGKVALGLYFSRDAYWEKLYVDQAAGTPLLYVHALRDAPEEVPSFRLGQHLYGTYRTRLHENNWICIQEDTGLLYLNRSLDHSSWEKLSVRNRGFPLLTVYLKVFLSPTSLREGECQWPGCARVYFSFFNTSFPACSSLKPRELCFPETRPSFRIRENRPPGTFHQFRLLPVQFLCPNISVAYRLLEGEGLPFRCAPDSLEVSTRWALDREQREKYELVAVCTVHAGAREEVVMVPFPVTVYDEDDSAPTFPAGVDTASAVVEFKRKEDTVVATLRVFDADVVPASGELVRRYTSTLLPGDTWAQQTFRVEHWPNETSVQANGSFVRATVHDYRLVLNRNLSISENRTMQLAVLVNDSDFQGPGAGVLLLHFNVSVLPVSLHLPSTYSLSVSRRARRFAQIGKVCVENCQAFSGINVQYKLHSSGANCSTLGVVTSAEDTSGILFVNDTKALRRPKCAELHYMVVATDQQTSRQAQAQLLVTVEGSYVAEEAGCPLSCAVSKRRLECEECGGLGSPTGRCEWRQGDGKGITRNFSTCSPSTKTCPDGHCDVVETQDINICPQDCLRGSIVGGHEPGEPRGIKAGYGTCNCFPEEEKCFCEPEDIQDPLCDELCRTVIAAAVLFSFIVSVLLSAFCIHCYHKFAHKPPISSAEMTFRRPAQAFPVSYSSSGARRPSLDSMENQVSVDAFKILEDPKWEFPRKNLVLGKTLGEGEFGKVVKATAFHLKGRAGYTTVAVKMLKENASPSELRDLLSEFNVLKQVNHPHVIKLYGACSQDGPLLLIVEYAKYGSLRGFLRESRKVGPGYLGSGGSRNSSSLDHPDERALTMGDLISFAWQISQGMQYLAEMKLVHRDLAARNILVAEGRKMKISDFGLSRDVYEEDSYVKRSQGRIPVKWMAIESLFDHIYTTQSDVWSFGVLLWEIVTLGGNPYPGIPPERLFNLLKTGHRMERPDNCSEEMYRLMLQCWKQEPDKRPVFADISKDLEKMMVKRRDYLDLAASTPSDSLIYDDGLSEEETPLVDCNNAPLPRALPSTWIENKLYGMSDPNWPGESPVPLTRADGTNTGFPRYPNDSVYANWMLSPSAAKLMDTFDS
T3 sequence (P35916 whole entry): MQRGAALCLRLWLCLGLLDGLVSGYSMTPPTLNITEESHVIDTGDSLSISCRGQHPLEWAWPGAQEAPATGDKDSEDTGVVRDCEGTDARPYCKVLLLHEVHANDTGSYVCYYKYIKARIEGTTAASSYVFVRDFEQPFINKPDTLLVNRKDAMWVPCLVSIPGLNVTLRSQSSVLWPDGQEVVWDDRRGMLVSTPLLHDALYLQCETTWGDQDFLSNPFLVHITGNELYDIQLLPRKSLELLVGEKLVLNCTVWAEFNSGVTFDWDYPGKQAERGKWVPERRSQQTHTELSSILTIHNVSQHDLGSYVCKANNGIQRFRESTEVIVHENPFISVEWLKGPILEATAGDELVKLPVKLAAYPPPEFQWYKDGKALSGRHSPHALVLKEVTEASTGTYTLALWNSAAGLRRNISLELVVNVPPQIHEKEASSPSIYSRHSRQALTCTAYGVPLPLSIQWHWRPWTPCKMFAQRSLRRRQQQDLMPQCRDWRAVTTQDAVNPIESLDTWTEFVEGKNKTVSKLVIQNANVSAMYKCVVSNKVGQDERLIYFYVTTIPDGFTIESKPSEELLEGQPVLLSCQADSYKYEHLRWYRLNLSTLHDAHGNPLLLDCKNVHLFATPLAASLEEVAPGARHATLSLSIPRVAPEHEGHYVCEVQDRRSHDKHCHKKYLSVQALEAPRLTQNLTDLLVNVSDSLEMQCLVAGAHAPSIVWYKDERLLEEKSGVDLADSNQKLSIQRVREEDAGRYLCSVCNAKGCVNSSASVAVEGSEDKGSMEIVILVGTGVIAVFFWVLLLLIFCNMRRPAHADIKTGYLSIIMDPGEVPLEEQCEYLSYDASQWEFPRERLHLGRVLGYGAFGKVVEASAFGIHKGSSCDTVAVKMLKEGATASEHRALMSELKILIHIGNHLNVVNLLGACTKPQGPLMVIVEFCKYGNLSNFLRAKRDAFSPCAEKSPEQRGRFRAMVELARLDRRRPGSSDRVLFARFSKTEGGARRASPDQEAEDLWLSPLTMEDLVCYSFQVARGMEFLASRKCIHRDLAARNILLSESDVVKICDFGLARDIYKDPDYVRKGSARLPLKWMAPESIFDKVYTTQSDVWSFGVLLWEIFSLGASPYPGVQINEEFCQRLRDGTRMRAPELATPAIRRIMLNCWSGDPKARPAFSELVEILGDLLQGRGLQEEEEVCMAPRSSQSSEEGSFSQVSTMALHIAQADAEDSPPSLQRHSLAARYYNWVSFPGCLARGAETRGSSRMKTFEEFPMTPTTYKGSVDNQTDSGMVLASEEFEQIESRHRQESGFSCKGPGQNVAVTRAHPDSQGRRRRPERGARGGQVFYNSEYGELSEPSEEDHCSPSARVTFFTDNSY
Sequence of Protein-tyrosine kinase 6 (Q13882 whole entry): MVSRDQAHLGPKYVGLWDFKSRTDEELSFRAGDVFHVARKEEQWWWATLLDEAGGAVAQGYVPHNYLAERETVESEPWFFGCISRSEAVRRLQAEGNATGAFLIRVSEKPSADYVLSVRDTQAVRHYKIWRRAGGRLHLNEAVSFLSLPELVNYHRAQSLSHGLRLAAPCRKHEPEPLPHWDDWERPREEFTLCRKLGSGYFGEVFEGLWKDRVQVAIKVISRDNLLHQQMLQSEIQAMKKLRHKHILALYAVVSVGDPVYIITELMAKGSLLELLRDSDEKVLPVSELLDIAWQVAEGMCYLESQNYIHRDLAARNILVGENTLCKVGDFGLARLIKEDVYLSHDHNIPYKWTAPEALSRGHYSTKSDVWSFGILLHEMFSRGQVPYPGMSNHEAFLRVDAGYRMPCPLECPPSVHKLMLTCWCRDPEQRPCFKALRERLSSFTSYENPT
Sequence of Inhibitor of nuclear factor kappa-B kinase subunit alpha (O15111 whole entry): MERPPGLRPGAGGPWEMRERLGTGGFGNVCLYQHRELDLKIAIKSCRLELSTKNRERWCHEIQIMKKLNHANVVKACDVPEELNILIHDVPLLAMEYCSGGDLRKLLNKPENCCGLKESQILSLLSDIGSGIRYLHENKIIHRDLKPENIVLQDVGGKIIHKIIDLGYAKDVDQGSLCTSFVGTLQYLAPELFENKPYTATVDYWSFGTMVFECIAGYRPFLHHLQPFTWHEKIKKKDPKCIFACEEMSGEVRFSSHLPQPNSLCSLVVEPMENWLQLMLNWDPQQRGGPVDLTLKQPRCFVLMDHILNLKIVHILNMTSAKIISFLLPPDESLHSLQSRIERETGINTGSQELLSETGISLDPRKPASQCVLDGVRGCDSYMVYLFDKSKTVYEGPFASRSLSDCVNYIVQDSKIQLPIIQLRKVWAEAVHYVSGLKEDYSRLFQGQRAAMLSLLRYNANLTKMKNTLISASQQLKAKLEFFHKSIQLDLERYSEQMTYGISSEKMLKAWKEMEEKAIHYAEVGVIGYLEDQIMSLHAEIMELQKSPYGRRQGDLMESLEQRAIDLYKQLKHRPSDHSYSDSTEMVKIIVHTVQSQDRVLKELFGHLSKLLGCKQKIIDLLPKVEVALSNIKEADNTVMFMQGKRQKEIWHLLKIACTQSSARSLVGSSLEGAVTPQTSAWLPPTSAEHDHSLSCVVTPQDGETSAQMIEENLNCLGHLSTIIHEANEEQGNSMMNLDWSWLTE

With `CNc1nc2[nH]c(-c3cccc(CNC(=O)COC)n3)cc2c2c1ncn2C`, the IC50 stood at 614 nM in data set [1]; 9 nM in data set [6]; 310 nM in data set [8]; 1000 nM in the data set on Blood [15]; 4960 nM in [16]; 1700 nM with Blood [18]. In [20], this compound came in with an IC50 of 360 nM. For the same compound, the clearance was determined as 4.5 mL/min/kg in data set [2] and 3.1 mL/min/kg in [7]. The same compound displayed an AUC in [3] of 89 µM·h. In addition, the pKa in [4] worked out at 2.5. Also, the AUC at 8 h in data set [5] was 156 µM·h. Further, the result in the data set on Mus musculus was Active. For the same compound, the inhibition in [9] and in data set [10] was over 75% throughout. Moreover, the Activity result in the data set on Salmonella typhimurium was “Non-toxic”. For the same compound, the bioavailability in [11] amounted to 90%. In addition, the logP in [12] worked out at 2. The results for the half-life in data set [13] and in data set [14] were 3.7 h and 0.66 h, respectively. Moreover, in data set [17], the peak level (Cmax) was 1600 nM. In addition, in data set [19], the fraction unbound is 0.084. Also, the Vd in [21] turned out to be 1.8 L/kg.
